Reference: patent US11566007B2, “Ras inhibitors” (Revolution Medicines, Inc., priority 2019, dated 2023)

Tests used:
K-Ras G12C = K-Ras G12C (Homo sapiens (Human), UniProt P01116+P62937, G12C); experiment: Ras-Raf (BRAF RBD) disruption / FRET / MOA assay, KRAS G12C; type: biochemical; conditions: KRAS G12C; Ras-Raf disruption/FRET/MOA assay; read-out: IC50* KRAS G12C FRET data
Method in brief: (§1)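 TR-FRET read-out: a drop in ratio relative to DMSO wells marks disruption of the Ras:RAF complex, reported as IC50. Compounds (3-fold series, 10 points, top 30 μM final) incubated 3 h at 25° C before Eu-anti-His 10 nM and APC-anti-GST 50 nM, 1.5 h more.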

KRAS G12S = KRAS G12S (Homo sapiens (Human), UniProt P01116+P62937, G12S); experiment: Ras-Raf (BRAF RBD) disruption / FRET / MOA assay, KRAS G12S; type: biochemical; conditions: Ras-Raf disruption/FRET/MOA assay; class symbols; read-out: KRAS G12S FRET data IC50
Chain of KRAS G12S (P01116-2 other isoform, or with tags, fused parts or gaps G12S): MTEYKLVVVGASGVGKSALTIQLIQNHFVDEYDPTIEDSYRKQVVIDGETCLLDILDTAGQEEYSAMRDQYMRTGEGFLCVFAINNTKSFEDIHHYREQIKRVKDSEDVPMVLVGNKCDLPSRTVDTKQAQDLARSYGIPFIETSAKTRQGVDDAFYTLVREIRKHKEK
Chain of KRAS G12S (P62937 whole entry): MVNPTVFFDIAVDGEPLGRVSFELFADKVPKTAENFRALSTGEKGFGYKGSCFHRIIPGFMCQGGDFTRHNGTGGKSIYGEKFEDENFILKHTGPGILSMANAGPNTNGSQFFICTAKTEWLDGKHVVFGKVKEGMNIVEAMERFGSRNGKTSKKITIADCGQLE
Method in brief: as §1

NRAS WT = NRAS WT (Homo sapiens (Human), UniProt P01111+P62937); experiment: Ras-Raf (BRAF RBD) disruption / FRET / MOA assay, NRAS WT; type: biochemical; conditions: read-out: IC50* NRAS WT FRET data
Chain of NRAS WT (P01111 whole entry): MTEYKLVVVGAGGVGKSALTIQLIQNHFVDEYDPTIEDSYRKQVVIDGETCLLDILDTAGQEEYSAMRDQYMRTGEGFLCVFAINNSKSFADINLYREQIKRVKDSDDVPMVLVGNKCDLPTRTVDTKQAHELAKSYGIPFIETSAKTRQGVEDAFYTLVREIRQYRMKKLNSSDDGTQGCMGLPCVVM
Chain of NRAS WT (P62937 whole entry): as the sequence (P62937 whole entry) above
Method in brief: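 Compounds were tested as a 10-point 3-fold dilution series from 30 μM final for their ability to drive ternary complex formation between nucleotide-loaded Ras and cyclophilin A, displacing the BRAF RBD. After 3 h at 25° C., anti-His Eu-W1024 (10 nM) and anti-GST allophycocyanin (50 nM) were added for 1.5 h. A TR-FRET ratio decrease versus DMSO gave IC50.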

KRAS WT = KRAS WT (Homo sapiens (Human), UniProt P01116+P62937); experiment: Ras-Raf (BRAF RBD) disruption / FRET / MOA assay, KRAS WT; type: biochemical; conditions: read-out: IC50* KRAS WT FRET data
Chain of KRAS WT (P01116-2 other isoform, or with tags, fused parts or gaps): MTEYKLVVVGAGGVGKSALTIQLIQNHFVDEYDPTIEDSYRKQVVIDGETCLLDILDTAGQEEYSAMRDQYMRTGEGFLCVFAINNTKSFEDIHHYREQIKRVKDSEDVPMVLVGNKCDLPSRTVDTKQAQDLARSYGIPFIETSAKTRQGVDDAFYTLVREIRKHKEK
Chain of KRAS WT (P62937 whole entry): as the sequence (P62937 whole entry) above
Method in brief: as §1

K-Ras G13C = K-Ras G13C (Homo sapiens (Human), UniProt P01116+P62937, G13C); experiment: Ras-Raf (BRAF RBD) disruption / FRET / MOA assay, KRAS G13C; type: biochemical; conditions: KRAS G13C; Ras-Raf disruption/FRET/MOA assay; read-out: IC50* KRAS G13C FRET data
Chain of K-Ras G13C (P01116-2 other isoform, or with tags, fused parts or gaps G13C): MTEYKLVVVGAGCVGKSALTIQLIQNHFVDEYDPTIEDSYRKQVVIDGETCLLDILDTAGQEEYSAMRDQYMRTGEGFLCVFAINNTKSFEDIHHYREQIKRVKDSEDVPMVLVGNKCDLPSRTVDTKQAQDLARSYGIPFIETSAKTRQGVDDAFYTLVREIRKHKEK
Chain of K-Ras G13C (P62937 whole entry): as the sequence (P62937 whole entry) above
Method in brief: as §1

KRAS G12V = KRAS G12V (Homo sapiens (Human), UniProt P01116+P62937, G12V); experiment: Ras-Raf (BRAF RBD) disruption / FRET / MOA assay, KRAS G12V; type: biochemical; conditions: read-out: IC50* KRAS G12V FRET data
Chain of KRAS G12V (P01116-2 other isoform, or with tags, fused parts or gaps G12V): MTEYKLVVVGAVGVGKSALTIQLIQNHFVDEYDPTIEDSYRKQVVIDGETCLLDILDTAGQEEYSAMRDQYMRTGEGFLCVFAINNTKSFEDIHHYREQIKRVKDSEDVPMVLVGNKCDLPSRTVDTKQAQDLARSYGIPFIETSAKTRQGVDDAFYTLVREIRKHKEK
Chain of KRAS G12V (P62937 whole entry): as the sequence (P62937 whole entry) above
Method in brief: as §1

NCI-H358 (K-Ras G12C) = experiment: CellTiter-Glo cell viability assay, NCI-H358; type: cell-based, human; conditions: Homo sapiens, NCI-H358, 120 h, NCI-H358, 5-day treatment; class symbols; read-out: Additional H358 Cell Viability assay data (K-Ras G12C, IC50)
Method in brief: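 Steps: compound dispensed into wells holding cells; incubation to day 5; ~30 min room-temperature equilibration; luminescence read; sample signal divided by mean DMSO signal, times 100; four-parameter logistic curve fit.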

KRAS G13D = KRAS G13D (Homo sapiens (Human), UniProt P01116+P62937, G13D); experiment: Ras-Raf (BRAF RBD) disruption / FRET / MOA assay, KRAS G13D; type: biochemical; conditions: read-out: IC50* KRAS G13D FRET data
Chain of KRAS G13D (P01116-2 other isoform, or with tags, fused parts or gaps G13D): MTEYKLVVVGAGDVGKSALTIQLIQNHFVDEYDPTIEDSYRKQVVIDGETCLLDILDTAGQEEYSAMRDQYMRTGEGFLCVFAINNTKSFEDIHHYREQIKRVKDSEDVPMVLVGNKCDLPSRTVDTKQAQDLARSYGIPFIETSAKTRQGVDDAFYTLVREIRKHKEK
Chain of KRAS G13D (P62937 whole entry): as the sequence (P62937 whole entry) above
Method in brief: as §1

Chain of K-Ras G12C (P01116-2 other isoform, or with tags, fused parts or gaps G12C): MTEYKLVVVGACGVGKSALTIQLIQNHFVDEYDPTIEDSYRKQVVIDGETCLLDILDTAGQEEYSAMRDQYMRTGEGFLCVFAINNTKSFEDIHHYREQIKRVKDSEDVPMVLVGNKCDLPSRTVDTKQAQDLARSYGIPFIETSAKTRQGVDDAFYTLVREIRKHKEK
Chain of K-Ras G12C (P62937 whole entry): as the sequence (P62937 whole entry) above

SMILES	IC50 (K-Ras G12C)	IC50 (KRAS G12S)	IC50 (NRAS WT)	IC50 (KRAS WT)	IC50 (K-Ras G13C)	IC50 (KRAS G12V)	IC50 (NCI-H358 (K-Ras G12C))	IC50 (KRAS G13D)
C=CC(=O)N1CC[C@H](C(=O)N(C)[C@H](C(=O)N[C@H]2Cc3cc(O)cc(c3)-c3ccc4c(c3)c(c(-c3csc(N(C)C)n3)n4CC)CC(C)(C)COC(=O)[C@@H]3CCCN(N3)C2=O)C(C)C)C1 [Example A303]	1000 to 10000 nM	> 10000 nM	> 10000 nM	> 10000 nM	> 10000 nM	> 10000 nM	100 to 1000 nM	> 10000 nM
C=CC(=O)N1CCO[C@]2(CCN(C(=O)N(C)[C@H](C(=O)N[C@H]3Cc4nc(cs4)-c4ccc5c(c4)c(c(-c4cccnc4[C@H](C)OC)n5CC(F)(F)F)CC(C)(C)COC(=O)[C@@H]4CCCN(N4)C3=O)C(C)C)C2)C1 (atropisomer, axis not shown) [Example A593]	100 to 1000 nM	1000 to 10000 nM	100 to 1000 nM	1000 to 10000 nM	100 to 1000 nM	1000 to 10000 nM	100 to 1000 nM	1000 to 10000 nM
CCn1c(-c2cccnc2[C@H](C)OC)c2c3cc(ccc31)-c1cccc(c1)CC(NC(=O)[C@H](C(C)C)N1CC[C@]3(CCN(C(=O)C#C[C@@H]4COCCN4C4COC4)C3)C1=O)C(=O)N1CCC[C@H](N1)C(=O)OCC(C)(C)C2 (stereo partly shown) [Example A565]	100 to 1000 nM	1000 to 10000 nM	> 10000 nM	> 10000 nM	1000 to 10000 nM	1000 to 10000 nM	10 to 100 nM	> 10000 nM
C=C(F)C(=O)N1CC(N(C)C(=O)N(C)[C@H](C(=O)N[C@H]2Cc3nc(cs3)-c3ccc4c(c3)c(c(-c3cccnc3[C@H](C)OC)n4CC)CC(C)(C)COC(=O)[C@@H]3CCCN(N3)C2=O)C(C)C)C1 (atropisomer, axis not shown) [Example A732]	100 to 1000 nM	100 to 1000 nM	100 to 1000 nM	100 to 1000 nM	100 to 1000 nM	1000 to 10000 nM	10 to 100 nM	1000 to 10000 nM
C=CC(=O)N1CC[C@H](C(=O)N(C)[C@H](C(=O)N[C@H]2CN3CCC=C(C3)c3ccc4c(c3)c(c(-c3cccnc3[C@H](C)OC)n4CC)CC(C)(C)COC(=O)[C@@H]3CCCN(N3)C2=O)C(C)C)C1 (atropisomer, axis not shown) [Example A716, (3S)-1-acryloyl-N-((2S)-1-(((6^3S,4S)-1^1-ethyl-1^2-(2-((S)-1-methoxyethyl)pyridin-3-yl)-10,10-dimethyl-5,7-dioxo-2^1,2^2,2^3,2^6,6^1,6^2,6^3,6^4,6^5,6^6-decahydro-1^1H-8-oxa-1(5,3)-indola-6(1,3)-pyridazina-2(5,1)-pyridinacycloundecaphane-4-yl)amino)-3-methyl-1-oxobutan-2-yl)-N-methylpyrrolidine-3-carboxamide]	100 to 1000 nM	1000 to 10000 nM	1000 to 10000 nM	1000 to 10000 nM	1000 to 10000 nM	1000 to 10000 nM	10 to 100 nM	> 10000 nM
C=CC(=O)N1CCC[C@H]2CN(C(=O)N(C)[C@H](C(=O)N[C@H]3Cc4nc(cs4)-c4ccc5c(c4)c(c(-c4cccnc4[C@H](C)OC)n5CC)CC(C)(C)COC(=O)[C@@H]4CCCN(N4)C3=O)C(C)C)C[C@H]21 (atropisomer, axis not shown) [Example A618]	100 to 1000 nM	100 to 1000 nM	100 to 1000 nM	100 to 1000 nM	100 to 1000 nM	100 to 1000 nM	10 to 100 nM	1000 to 10000 nM
C=CC(=O)N(C)C[C@H]1CCN1C(=O)N(C)[C@H](C(=O)N[C@H]1Cc2nc(cs2)-c2ccc3c(c2)c(c(-c2cccnc2[C@H](C)OC)n3CC)CC(C)(C)COC(=O)[C@@H]2CCCN(N2)C1=O)C(C)C (atropisomer, axis not shown) [Example A369]	100 to 1000 nM	100 to 1000 nM	100 to 1000 nM	100 to 1000 nM	100 to 1000 nM	100 to 1000 nM	10 to 100 nM	1000 to 10000 nM
C=CS(=O)(=O)N1CCC(C(=O)N(C)[C@H](C(=O)N[C@H]2Cc3nc(cs3)-c3ccc4c(c3)c(c(-c3cncnc3)n4CC)CC(C)(C)COC(=O)[C@@H]3CCCN(N3)C2=O)C(C)C)C1 (single isomer, unassigned) [Example A170]	1000 to 10000 nM	> 10000 nM	> 10000 nM	> 10000 nM	1000 to 10000 nM	> 10000 nM	100 to 1000 nM	> 10000 nM
C=CC(=O)C1CC[C@H](C(=O)N(C)[C@H](C(=O)N[C@H]2Cc3nsc(n3)-c3ccc4c(c3)c(c(-c3cccnc3[C@H](C)OC)n4CC)CC(C)(C)COC(=O)[C@@H]3CCCN(N3)C2=O)C(C)C)C1 (stereo partly shown) [Example A694]	100 to 1000 nM	1000 to 10000 nM	1000 to 10000 nM	1000 to 10000 nM	100 to 1000 nM	1000 to 10000 nM	10 to 100 nM	1000 to 10000 nM
C=CC(=O)N(C)CCN1CCN(C(=O)N(C)[C@H](C(=O)N[C@H]2Cc3cccc(c3)-c3ccc4c(c3)c(c(-c3cccnc3[C@H](C)OC)n4CC)CC(C)(C)COC(=O)[C@@H]3CCCN(N3)C2=O)C(C)C)C[C@@H]1C (atropisomer, axis not shown) [Example A570]	100 to 1000 nM	100 to 1000 nM	100 to 1000 nM	100 to 1000 nM	10 to 100 nM	100 to 1000 nM	100 to 1000 nM	1000 to 10000 nM
C=CC(=O)N1CC[C@H](C(=O)N(C)[C@H](C(=O)N[C@H]2Cc3cccc(c3)-c3ccc4c(c3)c(c(-c3cccnc3[C@H](C)OC)n4CC3COC3)CC(C)(C)COC(=O)[C@@H]3CCCN(N3)C2=O)C(C)C)C1 (atropisomer, axis not shown) [Example A481]	100 to 1000 nM	1000 to 10000 nM	1000 to 10000 nM	1000 to 10000 nM	1000 to 10000 nM	1000 to 10000 nM	10 to 100 nM	> 10000 nM
C=CC(=O)N1CC[C@H](C(=O)N(C)[C@H](C(=O)N[C@H]2Cc3cc(O)cc(c3)-c3ccc4c(c3)c(c(-c3cncs3)n4CC)CC(C)(C)COC(=O)[C@@H]3CCCN(N3)C2=O)C(C)C)C1 [Example A143]	100 to 1000 nM	1000 to 10000 nM	> 10000 nM	> 10000 nM	> 10000 nM	1000 to 10000 nM	10 to 100 nM	> 10000 nM
C=CC(=O)N1CC2(CCN(C(=O)N(C)[C@H](C(=O)N[C@H]3Cc4cccc(c4)-c4ccc5c(c4)c(c(-c4cccnc4[C@H](C)OC)n5CC)CC(C)(C)COC(=O)[C@@H]4CCCN(N4)C3=O)C(C)C)CC2)C1 (atropisomer, axis not shown) [Example A680]	100 to 1000 nM	100 to 1000 nM	100 to 1000 nM	100 to 1000 nM	10 to 100 nM	100 to 1000 nM	10 to 100 nM	1000 to 10000 nM
C=CC(=O)N1CC[C@H](C(=O)N(C)[C@H](C(=O)N[C@H]2Cc3cccc(c3)-c3ccc4c(c3)c(c(-c3cccnc3[C@H](C)OC)n4CC)CC(C)(C)COC(=O)[C@@H]3CCCN(N3)C2=O)C(C)C(F)(F)F)C1 (stereo partly shown) [Example A641]	100 to 1000 nM	1000 to 10000 nM	1000 to 10000 nM	1000 to 10000 nM	1000 to 10000 nM	1000 to 10000 nM	10 to 100 nM	1000 to 10000 nM
